We go through five molecules from patent publication US20240226030A1, “COMPOSITIONS AND METHODS USING AT LEAST ONE OF INOSITOL, ERYTHRITOL OR SORBITOL TO ENHANCE GROWTH OF FAECALIBACTERIUM PRAUSNITZII” (SOCIÉTÉ DES PRODUITS NESTLE S.A., priority 2021, published 2024).

The test system of experiment [1] is F. prausnitzii. The experiment can be described thus: Model organism test of sugar alcohols as energy substrate for F. prausnitzii. In kind it is cell-based, Faecalibacterium prausnitzii. The note with it: FIGS. 4A and 4B. An excerpt:
Using a model organism, the effect of inositol and sorbitol as energy substrate for F. prausnitzii was confirmed (FIGS. 4A and 4B), but not xylitol. Thus, all sugar alcohols cannot be assumed to have the same effect on F. prausnitzii.

In experiment [2] the test system is F. prausnitzii. The experiment is described as follows: Growth of F. prausnitzii with added vitamins, glucose as substrate. The note with it: FIG. 6D. It counts as cell-based, Faecalibacterium prausnitzii.

Consider `OC[C@@H](O)[C@@H](O)CO` [erythritol], for which the “effect as energy substrate for F. prausnitzii” value with F. prausnitzii [1] is “confirmed”. Still for that read-out and setting: then `O[C@H]1[C@H](O)[C@@H](O)[C@H](O)[C@@H](O)[C@H]1O` [inositol], with “confirmed”; and `OC[C@@H](O)[C@@H](O)[C@H](O)[C@@H](O)CO` [sorbitol], with “confirmed”. Regarding `OC[C@@H](O)[C@H](O)[C@@H](O)CO` [xylitol, reference compound], the “effect as energy substrate for F. prausnitzii” value in the experiment on F. prausnitzii [1] is reported as “not”.

Turning to Vitamin B12, the “growth of F. prausnitzii compared with control” value with F. prausnitzii [2] is reported as “more than control”.
